Active and inactive are the calls of the source.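 Rule for the calls: active = half-maximal effective concentration at most 10 microM and response span at least 30% from a well-fitted curve; inactive = the rest.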
molecular target: Rab7 GTPase wild-type (Canis lupus familiaris), GST fusion; assay: Rab7 wildtype GTP binding inhibitors, SAR follow-up, biochemical, dog Rab7, bead multiplex flow cytometry, round 1 (AID 588394); conditions: Bead-based flow cytometry, Bodipy-FL-GTP binding, EDTA

EC50 | Structure (SMILES)
308 nM | CC1(C)Cc2c(sc(NC(=S)NC(=O)c3cccc(F)c3)c2C(=O)O)CO1
46 nM | CC1(C)Cc2c(sc(NC(=S)NC(=O)c3ccccc3Br)c2C(=O)O)CO1
2280 nM | CC1(C)Cc2c(sc(NC(=S)NC(=O)c3cccc(Br)c3)c2C(=O)O)CO1
269 nM | CC1(C)Cc2c(sc(NC(=S)NC(=O)c3ccc(Br)cc3)c2C(=O)O)CO1
56 nM | CC1(C)Cc2c(sc(NC(=S)NC(=O)c3ccccc3F)c2C(=O)O)CO1
55 nM | COc1cccc(C(=O)NC(=S)Nc2sc3c(c2C(=O)O)CC(C)(C)OC3)c1
72 nM | CC1(C)CCc2sc(NC(=S)NC(=O)c3ccccc3)c(C(=O)O)c2C1
126 nM | COc1ccc(C(=O)NC(=S)Nc2sc3c(c2C(=O)O)CC(C)(C)OC3)cc1

same assay, conditions: Bead-based flow cytometry, Bodipy-FL-GTP binding, EDTA; at 100 µM (top of the series)

percent response, lower = inhibition | Structure (SMILES)
inactive | CCOC(=O)c1c(NC(=O)NC(C)(C)C)sc2c1CCN(C)C2
inactive | Cc1ccc(Nc2nc3sc4c(c3c(=O)o2)CCN(C)C4)cc1
inactive | CCOC(=O)c1c(NC(=S)Nc2ccccc2)sc2c1CC(C)(C)OC2
inactive | COC(=O)c1c(N)sc2c1CC(C)(C)OC2
inactive | CN1CCc2c(sc3nc(Nc4ccc(F)cc4)oc(=O)c23)C1
inactive | CN1CCc2c(sc(NC(=O)Nc3ccc(F)cc3)c2C(=O)O)C1
inactive | CCOC(=O)c1c(NC(=O)Nc2ccc(C)cc2)sc2c1CCN(C)C2
inactive | CCOC(=O)c1c(N)sc2ccccc12
inactive | CCOC(=O)c1c(NC(=O)Nc2ccc(F)cc2)sc2c1CCN(C)C2
inactive | Cc1ccc(NC(=O)Nc2sc3c(c2C(=O)O)CCN(C)C3)cc1
inactive | CC1(C)Cc2c(sc(NC(=O)Cc3ccccc3)c2C(=O)O)CO1
inactive | CC(C)(C)OC(=O)c1c(NC(=S)NC(=O)c2ccccc2)sc2c1CCOC2
inactive | CCOC(=O)c1c(NC(=S)NC(=O)c2ccccc2)sc2ccccc12
inactive | CC1(C)Cc2c(sc(NC(=S)Nc3ccccc3)c2C(=O)O)CO1
